What was measured:
[1] = IAM chromatography (IAM-HPLC), IAM.PC.DD2 column; format: physicochemical; details: for logkIAM: logkIAM = 0.045 CHIIAM + 0.42; for logkIAM / CHI (CHIIAM), Table S2: pH 7.4; for CHIIAM: pH 7.4, 30 °C, acetonitrile gradient; for CHI (CHIIAM), Table S2: IAM chromatography, from mean of three retention times
From the text: (§1) For this reason, the next step of our study concerns the characterization of investigated sulfonamide derivatives using a chromatographic approach. Generally, in RP-HPLC, the interactions between solutes and the stationary phase surface are mainly governed by lipophilicity. Consequently, RP-HPLC is the primary tool for assessing the lipophilicity of xenobiotics. […] Generally, the chemical character of target solutes determines interactions between the molecule and the stationary phase that may occur. Considering the large variety of RP-HPLC beds and differences in specific surface area, the energy of the sorbent’s intermolecular interactions between solutes and chemical structures, four different reversed-phase stationary phases and IAM column were investigated during this study. The lipophilicity index was presented as a logkw value, so the retention factor was extrapolated to the pure water after calculation using a protocol based on two gradient measurements and DryLab software.
(§2) Since the biomimetic chromatography experiments are carried out at physiological pH to compare obtained results, all chromatographic experiments have been carried out at pH 7.4. […] Consequently, the chromatography lipophilicity indices refer to the distribution coefficient (logD) values, which better reflect the lipophilicity of ionized substances under physiological conditions.
(§3) All HPLC experiments were carried out using a Prominence-1 LC-2030C 3D HPLC system (Shimadzu, Japan) equipped with a DAD detector and controlled by the LabSolution system (version 5.90 Shimadzu, Japan). The stock solutions of solutes were diluted to obtain 100 μg/mL concentrations, and the injected volume was 10 μL. During this study, six different columns in terms of chemical modification of stationary phases were used. Retention times (tR) of investigated sulfonamides were collected, and their detection in all systems was performed at the wavelength characteristic for each compound, summarized in Table S1. For all chromatography systems, analysis was carried out at 40 °C, except for IAM chromatography, in which oven temperature was set to 30 °C. The CHIIAM and CHI18 indices of the target sulfonamides derivatives were obtained using the protocol proposed by Valko and co-workers. C18 chromatography was performed on a Waters-C18 column (150 mm × 3.9 mm; 5.0 µm; Symmetry; USA), with a 1.5 mL/min flow rate. The mobile phase was ammonium acetate buffer (50 mM) at pH 7.4 and acetonitrile as an organic modifier. The linear gradient from 2 to 98% ACN was applied from 0 to 30 min. IAM chromatography was executed on an IAM.PC.DD2 column ([…] × 4.6 mm; 10.0 µm; Regis Technologies, Morton Grove, IL, USA) additionally equipped with an IAM guard column with the same flow rate of 1.5 mL/min. The mobile phase was sodium phosphate buffer (10 mM) at pH 7.4 and acetonitrile as the organic phase. The linear gradient from 0 to 85% was applied within 5.25 min.

[2] = C18 chromatography (RP-HPLC), chromatographic hydrophobicity index; format: physicochemical; details: for chromatographic logD: Waters Symmetry C18 column, CHI log D = 0.0525 CHIC18 − 1.467, pH 7.4; for CHIC18: pH 7.4, 40 °C, acetonitrile gradient
From the text: as §1, §2, §3

[3] = C8 chromatography (RP-HPLC), logkw from two gradients with DryLab; format: physicochemical; details: for logkw, Table S4: C8 chromatography, pH 7.4, short and long gradient; for logkwC8: pH 7.4, 40 °C, retention factor extrapolated to 0% organic modifier
From the text: as §1, §2
(§4) For C8, cyanopropyl, and phenyl chromatography, according to the assumption proposed by Snyder and co-workers, appropriate logkw values (i.e., the retention factor logk extrapolated to 0% organic modifier, as an alternative to logP) were obtained. […] Dwell volume for these HPLC systems was measured at 0.780 mL, whereas the obtained dead times for used HPLC columns were equal to 1.530 min, 1.252 min, and 2.335 min for C8, SB-CN, and UK-Phenyl, respectively. The mobile phase was ammonium acetate buffer (50 mM) at pH 7.4 and acetonitrile as an organic modifier in each system. C8 chromatography was performed on Unison UK-C8 column (150 × 2 mm; 3.0 µm. Imtakt; USA) with 0.3 mL/min flow rate. Analyses were carried out in linear gradient from 30 to 100% within 15 min in short gradient and 30 min in long gradient. The Agilent SB-CN column (150 × 4.6 mm; 3.5 µm; Zorbax; USA) was used for the cyanopropyl chromatography. The CN chromatography analyses were carried out in linear gradient from 20 to 100%, which was applied from 0 to 20 min in short gradient, and from 0 to 40 min in long gradient. The flow rate was 1.5 mL/min. The column Unison UK-Phenyl (150 × 2 mm; 3.0 µm; Imtakt; USA) was used to perform phenyl chromatography. The flow rate was set to 0.2 mL/min. The phenyl analyses were carried out in linear gradient from 40 to 100%, which was applied from 0 to 20 min in short gradient, and from 0 to 40 min in long gradient. Each HPLC analysis was run in triplicate; in Tables S2–S6, obtained retention times are listed, whereas representative chromatograms are shown in Figure 9.

[4] = Cyanopropyl (CN) chromatography, logkw from two gradients with DryLab; format: physicochemical; details: for logkw, Table S5: Cyanopropyl chromatography, pH 7.4, short and long gradient; for logkwCN: pH 7.4, 40 °C, retention factor extrapolated to 0% organic modifier
From the text: as §1, §2, §4

[5] = Phenyl (Ph) chromatography, logkw from two gradients with DryLab; format: physicochemical; details: for logkw, Table S6: Phenyl chromatography, pH 7.4, short and long gradient; for logkwPh: pH 7.4, 40 °C, retention factor extrapolated to 0% organic modifier
From the text: as §1, §2, §4

[6] = system: human colon cancer (HCT-116); parameters: method as in PMID 29772699, PMID 28122174, PMID 27338337, PMID 26506328; details: HCT-116 cell line; cited from earlier work

Row | SMILES | logkIAM [1] | CHIIAM [1] | chromatographic logD [2] | CHIC18 [2] | logkw, Table S4 [3] | logkwC8 [3] | logkw, Table S5 [4] | logkwCN [4] | logkw, Table S6 [5] | logkwPh [5] | CHI (CHIIAM), Table S2 [1] | pIC50 [6]
1 | COc1ccc(-c2cnnc(NS(=O)(=O)c3cc(C(=O)Nc4ccccc4)c(Cl)cc3SCc3ccccc3)n2)cc1 [Compound 14] | 2.03 | 35.80 | 2.68 | 78.90 | 4.130 | 4.13 | 2.020 | 2.02 | 4.310 | 4.31 | – | 4.11
2 | COc1ccc(-c2cnnc(NS(=O)(=O)c3cc(C(=O)Nc4ccc(Cl)cc4)c(Cl)cc3SCc3ccccc3)n2)cc1 [Compound 16] | 2.21 | 39.80 | 3.04 | 85.90 | 4.380 | 4.38 | 2.471 | 2.47 | 4.476 | 4.48 | – | 4.12
3 | COc1ccc(-c2cnnc(NS(=O)(=O)c3cc(C(=O)Nc4ccc(C)cc4)c(Cl)cc3SCc3ccccc3)n2)cc1 [Compound 18] | 2.11 | 37.50 | 2.88 | 82.80 | 4.280 | 4.28 | 2.358 | 2.36 | 4.228 | 4.23 | – | 4.12
4 | COc1cc(-c2cnnc(NS(=O)(=O)c3cc(C(=O)Nc4ccc(C)cc4)c(Cl)cc3SCc3ccccc3)n2)cc(OC)c1OC [Compound 19] | 1.93 | 33.60 | 2.72 | 79.70 | 4.068 | 4.07 | 2.216 | 2.22 | 3.967 | 3.97 | – | 4.12
5 | COc1ccc(NC(=O)c2cc(S(=O)(=O)Nc3nncc(-c4ccc(OC)cc4)n3)c(SCc3ccccc3)cc2Cl)cc1 [Compound 20] | 1.99 | 34.90 | 2.59 | 77.20 | 4.020 | 4.02 | 2.211 | 2.21 | 3.789 | 3.79 | – | 4.14
6 | Cc1cc(S(=O)(=O)Nc2nncc(-c3cccc(F)c3)n2)c(SCc2cccc3ccccc23)cc1Cl [Compound 22] | 2.32 | – | 2.97 | 84.60 | 4.276 | 4.28 | 2.356 | 2.36 | 4.254 | 4.25 | 42.2 | 4.31
7 | COc1ccc(-c2cnnc(NS(=O)(=O)c3cc(C)c(Cl)cc3SCc3cccc4ccccc34)n2)cc1 [Compound 23] | 2.27 | – | 3.05 | 86.10 | 4.120 | 4.12 | 2.478 | 2.48 | 4.401 | 4.40 | 41.1 | 4.42

Continued, in another order:

Row | logkIAM [1] | CHIIAM [1] | chromatographic logD [2] | CHIC18 [2] | logkw, Table S4 [3] | logkwC8 [3] | logkw, Table S5 [4] | logkwCN [4] | logkw, Table S6 [5] | logkwPh [5] | CHI (CHIIAM), Table S2 [1] | SMILES | pIC50 [6]
8 | 2.37 | 43.40 | 3.39 | 92.50 | 4.530 | 4.53 | 2.642 | 2.64 | 5.074 | 5.07 | – | O=C(Nc1ccc(Cl)cc1)c1cc(S(=O)(=O)Nc2nncc(-c3ccc(C(F)(F)F)cc3)n2)c(SCc2ccccc2)cc1Cl [Compound 15] | 4.19
9 | 2.28 | 41.40 | 3.25 | 89.90 | 4.490 | 4.49 | 2.544 | 2.54 | 4.540 | 4.54 | – | Cc1ccc(NC(=O)c2cc(S(=O)(=O)Nc3nncc(-c4ccc(C(F)(F)F)cc4)n3)c(SCc3ccccc3)cc2Cl)cc1 [Compound 17] | 4.15
10 | 2.28 | 41.30 | 3.34 | 91.60 | 4.440 | 4.44 | 2.110 | 2.11 | 4.480 | 4.48 | – | Cc1cc(S(=O)(=O)Nc2nncc(-c3ccc(C(F)(F)F)cc3)n2)c(SCc2ccc(C(F)(F)F)cc2)cc1Cl [Compound 21] | 4.29
11 | 2.14 | – | 3.13 | 87.50 | 4.256 | 4.26 | 2.277 | 2.28 | 4.088 | 4.09 | 38.3 | Cc1cc(S(=O)(=O)Nc2nncc(-c3cccc(F)c3)n2)c(SCc2ccc(C(F)(F)F)cc2)cc1Cl [Compound 24] | 4.17
12 | 2.09 | – | 2.96 | 84.40 | 4.260 | 4.26 | 2.330 | 2.33 | 3.886 | 3.89 | 37.2 | COc1ccc(-c2cnnc(NS(=O)(=O)c3cc(C)c(Cl)cc3SCc3ccc(C(F)(F)F)cc3)n2)cc1 [Compound 25] | 4.17

From PMC9268166, “Modeling of Anticancer Sulfonamide Derivatives Lipophilicity by Chemometric and Quantitative Structure-Retention Relationships Approaches” (Molecules, 2022)
